Reference: patent US20240041042A1, “1-(PYRIDYL)-5-AZINYLPYRAZOLE DERIVATIVES, AND THEIR USE FOR CONTROL OF UNDESIRED PLANT GROWTH” (Bayer Aktiengesellschaft, priority 2020, published 2024)
Read-outs that look alike come from different tables or passages of the source.

Experiments:
Format in all cases: in vivo
[1] = tested on: Abutilon theophrasti (ABUTH); assay: Pre-emergence herbicidal action against ABUTH; conditions: 100% = plants have died
Source text: Seeds of monocotyledonous and dicotyledonous weed plants and crop plants are placed in plastic or organic planting pots and covered with soil. The compounds of the invention, formulated in the form of wettable powders (WP) or as emulsion concentrates (EC), are then applied to the surface of the covering soil as aqueous suspension or emulsion with addition of 0.5% additive at a water application rate equivalent to 600 l/ha. After the treatment, the pots are placed in a greenhouse and kept under good growth conditions for the trial plants. After about 3 weeks, the effect of the preparations is scored visually in comparison with untreated controls as percentages. For example, 100% activity=the plants have died, 0% activity=like control plants.
Tables A1 to A13 below show the effects of selected compounds of the general formula (I) on various harmful plants and at an application rate corresponding to 320 g/ha or lower, which were obtained by the experimental procedure mentioned above. The appendices “a”, “b” and “c” give differentiation by dosage used with otherwise the same harmful plants tested.

[2] = tested on: Alopecurus myosuroides (ALOMY); assay: Pre-emergence herbicidal action against ALOMY; conditions: scored visually after about 3 weeks, 100% = plants have died
Outline: (§1)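 Read-out is visual percent damage relative to untreated pots, with 100% meaning dead plants and 0% meaning no difference, assessed roughly three weeks after treatment. Compounds were applied pre-emergence to the covering soil at up to 320 g/ha.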

[3] = tested on: Amaranthus retroflexus (AMARE); assay: Pre-emergence herbicidal action against AMARE; conditions: visual scoring after about 3 weeks vs untreated controls
Outline: as §1

[4] = tested on: Avena fatua (AVEFA); assay: Pre-emergence herbicidal action against AVEFA; conditions: visual scoring after about 3 weeks vs untreated controls
Outline: as §1

[5] = tested on: Echinochloa crus-galli (ECHCG); assay: Pre-emergence herbicidal action against ECHCG
Outline: as §1

[6] = tested on: Lolium rigidum (LOLRI); assay: Pre-emergence herbicidal action against LOLRI
Outline: as §1

[7] = tested on: Matricaria inodora (MATIN); assay: Pre-emergence herbicidal action against MATIN
Outline: as §1

[8] = tested on: Pharbitis purpurea (PHBPU); assay: Pre-emergence herbicidal action against PHBPU
Outline: as §1

[9] = tested on: Polygonum convolvulus (POLCO); assay: Pre-emergence herbicidal action against POLCO
Outline: as §1

[10] = tested on: Setaria viridis (SETVI); assay: Pre-emergence herbicidal action against SETVI
Outline: as §1

[11] = tested on: Verconica persica (VERPE); assay: Pre-emergence herbicidal action against VERPE
Outline: as §1

[12] = tested on: Viola tricolor (VIOTR); assay: Pre-emergence herbicidal action against VIOTR
Outline: as §1

[13] = tested on: Abutilon theophrasti (ABUTH); assay: Post-emergence herbicidal action against ABUTH; conditions: visual rating about 3 weeks after treatment vs untreated controls (100% = plants have died, 0% = like control plants)
Outline: (§2)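 Doses of 320 g/ha or lower, suffixes a, b and c marking different dosages, were applied post-emergence at the one-leaf stage in 600 l/ha water with 0.5% additive. Damage was assessed visually after about 3 weeks in the greenhouse.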

[14] = tested on: Alopecurus myosuroides (ALOMY); assay: Post-emergence herbicidal action against ALOMY; conditions: visual rating about 3 weeks after treatment vs untreated controls (100% = plants have died, 0% = like control plants)
Outline: as §2

[15] = tested on: Amaranthus retroflexus (AMARE); assay: Post-emergence herbicidal action against AMARE
Outline: as §2

[16] = tested on: Avena fatua (AVEFA); assay: Post-emergence herbicidal action against AVEFA; conditions: visual rating about 3 weeks after treatment
Outline: as §2

[17] = tested on: Pharbitis purpurea (PHBPU); assay: Post-emergence herbicidal action against PHBPU
Outline: as §2

[18] = tested on: Polygonum convolvulus (POLCO); assay: Post-emergence herbicidal action against POLCO; conditions: dosage 80 g/ha
Outline: as §2

[19] = tested on: Setaria viridis (SETVI); assay: Post-emergence herbicidal action against SETVI
Outline: as §2

[20] = tested on: Verconica persica (VERPE); assay: Post-emergence herbicidal action against VERPE
Outline: as §2

[21] = tested on: Oryza sativa (ORYSA); conditions: crop plant compatibility
Outline: (§3)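 Foliar application at the one-leaf stage: WP/EC formulation, 0.5% additive, 600 l/ha water. Greenhouse-grown in sandy loam. Endpoint is visual % injury relative to untreated controls at about 3 weeks.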

[22] = tested on: Echinochloa crus-galli (ECHCG); assay: Post-emergence herbicidal action against ECHCG
Outline: as §2

[23] = tested on: Lolium rigidum (LOLRI); assay: Post-emergence herbicidal action against LOLRI
Outline: as §2

[24] = tested on: Viola tricolor (VIOTR); assay: Post-emergence herbicidal action against VIOTR; conditions: 320 g/ha
Outline: as §2

[25] = tested on: Zea mays (ZEAMX); conditions: crop plant compatibility, 80 g/ha, effect vs untreated controls
Outline: as §3

[26] = 80 g/ha, scored visually after about 3 weeks vs untreated controls, 0% = like control plants
[27] = Dosage column 320 g/ha (title prints 3200 g/ha), scored visually after about 3 weeks
[28] = 80 g/ha, visual rating about 3 weeks after treatment vs untreated controls (100% = plants have died, 0% = like control plants)
[29] = 20 g/ha, effect vs untreated controls
[30] = 80 g/ha, effect in comparison to untreated controls

SMILES	Pre-emergence action against ABUTH [1, 27] [%]	Pre-emergence action against ALOMY ([2]; 320 g/ha) [%]	Pre-emergence action against AMARE in % ([3]; 80 g/ha) [%]	Pre-emergence action against AMARE in % ([3]; 320 g/ha) [%]	Pre-emergence action against AVEFA in % ([4]; 320 g/ha) [%]	Pre-emergence action against ECHCG in % ([5]; dosage 80 g/ha) [%]	Pre-emergence action against ECHCG in % ([5]; dosage 320 g/ha) [%]	Pre-emergence action against LOLRI in % ([6]; dosage 80 g/ha) [%]	Pre-emergence action against LOLRI in % ([6]; dosage 320 g/ha) [%]	Pre-emergence action against MATIN in % ([7]; dosage 320 g/ha) [%]	Pre-emergence action against PHBPU in % ([8]; dosage 320 g/ha) [%]	Pre-emergence action against POLCO in % ([9]; dosage 320 g/ha) [%]	Pre-emergence action against SETVI in % ([10]; dosage 320 g/ha) [%]	Pre-emergence action against VERPE in % ([11]; dosage 80 g/ha) [%]	Pre-emergence action against VERPE in % ([11]; dosage 320 g/ha) [%]	Pre-emergence action against VIOTR in % ([12]; 320 g/ha, Viola tricolor) [%]	Pre-emergence action against VIOTR in % ([12]; dosage 80 g/ha) [%]	Post-emergence action against ABUTH in % ([13]; 80 g/ha) [%]	Post-emergence action against ALOMY in % ([14]; 80 g/ha) [%]	Post-emergence action against AMARE in % [15, 28] [%]	other results
C[C@@H](Oc1nn(-c2ccccn2)c(-c2cncc(F)c2)c1Br)C(=O)O [Example I-79]	90	100	100	100	100	80	100	100	100	90	90	90	100	80	100	100	100	80	80	90	Pre-emergence action against ABUTH [1, 26]: 80%; Pre-emergence action against ALOMY ([2]; 80 g/ha): 90%; Pre-emergence action against MATIN in % ([7]; dosage 80 g/ha): 80%; Pre-emergence action against PHBPU in % ([8]; dosage 80 g/ha): 90%; Pre-emergence action against POLCO in % ([9]; dosage 80 g/ha): 90%; Pre-emergence action against SETVI in % ([10]; dosage 80 g/ha): 100%; Post-emergence action against AVEFA in % ([16]; 80 g/ha): 100%; Post-emergence action against PHBPU in % ([17]; dosage 80 g/ha): 80%; Post-emergence action against POLCO in % [18]: 80%; Post-emergence action against SETVI in % ([19]; dosage 80 g/ha): 80%; Post-emergence action against VERPE in % ([20]; dosage 80 g/ha): 80%; Post-emergence action against ORYSA in % [21, 29]: 0%; Post-emergence action against ORYSA in % [21, 30]: 0%
O=C(O)COc1nn(-c2ccccn2)c(-c2cncc(F)c2)c1Br [Example I-84]	80	100	80	100	90	80	100	90	100	90	90	90	100	90	100	100	90	80	80	90	Pre-emergence action against ALOMY ([2]; 80 g/ha): 80%; Pre-emergence action against AVEFA in % ([4]; 80 g/ha): 80%; Pre-emergence action against MATIN in % ([7]; dosage 80 g/ha): 90%; Pre-emergence action against PHBPU in % ([8]; dosage 80 g/ha): 90%; Post-emergence action against AVEFA in % ([16]; 80 g/ha): 80%; Post-emergence action against ECHCG in % ([22]; dosage 80 g/ha): 80%; Post-emergence action against LOLRI in % ([23]; dosage 80 g/ha): 90%; Post-emergence action against PHBPU in % ([17]; dosage 80 g/ha): 90%; Post-emergence action against POLCO in % [18]: 90%; Post-emergence action against SETVI in % ([19]; dosage 80 g/ha): 80%; Post-emergence action against VERPE in % ([20]; dosage 80 g/ha): 80%; Post-emergence action against ORYSA in % [21, 29]: 0%; Post-emergence action against ORYSA in % [21, 30]: 10%
COC(=O)[C@@H](C)Oc1nn(-c2nc(F)ccc2F)c(-c2ccc(F)nc2)c1Cl [Example I-332]	80	100	80	100	100	80	100	90	100	90	100	80	100	80	90	100	90	80	80	80	Pre-emergence action against ABUTH [1, 26]: 80%; Pre-emergence action against POLCO in % ([9]; dosage 80 g/ha): 80%; Post-emergence action against ABUTH in % ([13]; 320 g/ha): 80%; Post-emergence action against ALOMY in % ([14]; 320 g/ha): 90%; Post-emergence action against AMARE in % ([15]; 320 g/ha, visual rating about 3 weeks after treatment): 80%; Post-emergence action against AVEFA in % ([16]; 80 g/ha): 80%; Post-emergence action against AVEFA in % ([16]; 320 g/ha): 90%; Post-emergence action against ECHCG in % ([22]; dosage 80 g/ha): 80%; Post-emergence action against ECHCG in % ([22]; dosage 320 g/ha): 90%; Post-emergence action against LOLRI in % ([23]; dosage 80 g/ha): 80%; Post-emergence action against LOLRI in % ([23]; dosage 320 g/ha): 90%; Post-emergence action against PHBPU in % ([17]; dosage 80 g/ha): 80%; Post-emergence action against PHBPU in % ([17]; dosage 320 g/ha): 80%; Post-emergence action against SETVI in % ([19]; dosage 320 g/ha): 80%; Post-emergence action against VERPE in % ([20]; 320 g/ha, VERPE): 80%; Post-emergence action against VIOTR in % [24]: 80%; Post-emergence action against ORYSA in % [21, 30]: 20%; Post-emergence action against ZEAMX in % [25]: 10%
